“Also recorded” adds a separate entry of the source.
Experiments:
Format in all cases: cell-based, Pseudomonas aeruginosa
[1] = test system: planktonic P. aeruginosa PAO1; experiment: Minimum inhibitory concentration (MIC) determination; conditions: Pseudomonas aeruginosa; planktonic (free-living) PAO1, LB medium, 18 h, 37 °C
Experimental: The minimum inhibitory concentration (MIC) of compounds and antibiotics were performed as previously described, with minor modification. […] Three antibiotics, including tobramycin, ciprofloxacin, and meropenem, were dissolved in water and filter sterilized. Ten microliters of two-fold serially diluted antibiotics were transferred to a 96-well Costar plate (Corning Inc., Corning, MA, USA) followed by the addition of 90 µL of diluted cultures. After an 18-h incubation at 37 °C in the static condition, optical density OD600 was monitored using a Synergy 2 microplate reader (BioTek, Winooski, VT, USA). […] The MIC was determined as the lowest concentrations of antibiotics that inhibit complete bacterial growth compared to growth control.

[2] = test system: outer membrane of wild-type PAO1 cells; experiment: NPN uptake assay (outer membrane permeability); conditions: PAO1 pre-treated with 100 µM CCCP, 30 min; polymyxin B at 6.4 and 10 µg/mL
Experimental: The effect of ianthelliformisamines on the permeability of the outer membrane was determined using an NPN uptake assay. NPN (1-N-phenylnapthylamine), a hydrophobic fluorescent probe, is excluded from the intact outer membranes of Gram-negative bacteria such as P. aeruginosa. It intensely fluoresces once it gains access to the phospholipid layer of membrane-compromised cells (Figure 5A). The experiments were conducted with different concentrations of ianthelliformisamines and sub-inhibitory doses of ciprofloxacin. […] The level of fluorescence intensity in bacteria challenged with test compounds, even at highest testing concentrations, resembled that in cells treated with DMSO.
The permeability of the outer membrane upon exposure to test compounds was assessed using a 1-N-phenylnapthylamine (NPN) uptake assay. An overnight culture of PAO1 was grown to an OD600 of 0.5, centrifuged, washed with HEPES buffer (5 mM, pH 7.2), and re-suspended in HEPES buffer containing 100 µM CCCP. […] Ninety microliters of the cell suspension were added to the flat-bottomed, black 96-well plate containing 10 µL of test compounds, and the NPN fluorescence was immediately monitored using a BioTek Synergy H1 Hybrid microplate reader at an excitation of 350 nm and an emission of 420 nm every min for 30 min. […]

[3] = test system: DNA damage reporter strain MDM-623; experiment: Cellular bioluminescent assay (DNA damage reporter); conditions: 8 h; ciprofloxacin at 0.0625, 0.083, 0.25 and 25 µg/mL
Source text: Ciprofloxacin, a fluroquinolone antibiotic, has been extensively utilized to treat various bacterial infections. It targets bacterial DNA topoisomerase and DNA gyrase, which produce breakage of double-stranded DNA, ultimately leading to cell death. […] In the effort of identifying the mechanisms of action of test compounds, we employed a DNA damage reporter strain MDM-623, which was constructed based on the promoter-luciferase reporter gene. The increased luminescence readouts are indicative of gyrase inhibition-induced promoter upregulation through the recA pathway. […] Nevertheless, there was no difference in the response of MDM-623 upon exposure to test compounds and the solvent (Figure 5E). The above results may imply that test compounds are unlikely to be DNA gyrase inhibitors and that their mechanism of action is unrelated to that of ciprofloxacin.
The reporter strain MDM-623 was kindly provided by Dr. Timothy Opperman (Microbiotix, Inc., Worcester, MA, USA). The strain harbors a promoter region from PA0614 fused to Photorhabdus luminescens luciferase luxCDABE operon, which was constructed to respond to DNA damage. All experiments were carried out as previously described with minor modification. […] Luminescence was monitored using a BioTek Synergy H1 Hybrid microplate reader for 8 h at 30-min intervals. […]

[4] = test system: PAO1ΔpslA (Psl deletion mutant); experiment: Biofilm inhibition assay (OD600 growth and resazurin biofilm viability)
Experimental: (§1) Figure 2 Biofilm assays to identify compounds that prevent biofilm formation. Biofilm inhibition assay. P. aeruginosa cultures were seeded into 384-well plates after dispensing compounds and antibiotics. The plates were incubated for 24 h at 37 °C followed by recording bacterial growth (OD600) and measuring the viability of biofilm bacteria using resazurin.
(§2) The overnight cultures at 37 °C in LB medium were washed once with sterile saline 0.9% (w/v) and adjusted to an OD600 of 0.05, and 1% inoculum was transferred into a fresh LB medium. Following incubation at 37 °C, 200 rpm for 6–6.5 h to reach the mid-log phase, the cells were washed once with sterile saline 0.9% and diluted to an OD600 of 0.01. Then, 45 µL aliquots were dispensed into 384-well plates (Greiner Bio-One, Kremsmünster, Austria, catalog no. 781091). In biofilm inhibition assays, test compounds (5 µL) were loaded prior to the addition of bacteria. The plates were incubated for 24 h at 37 °C in static conditions. The effects of compounds on bacterial growth and viability of biofilm bacteria were determined by the OD600 and resazurin metabolic assay, respectively. The final concentrations of DMSO in the assays were 1–2%. The negative controls or untreated cultures consisted of inoculum and different concentrations of DMSO. Antibiotic ciprofloxacin (0.25 µg/mL and 25 µg/mL) was used as positive controls. The initial OD600 and final OD600 were read before incubation at 37 °C and after 24 h incubation, respectively, followed by assessment of biofilm viability by resazurin metabolic assay. The experiments were carried out with three technical replicates and repeated at least twice. The growth inhibition was calculated as a function of the percentage of the total bacterial inhibition using Equation (1), where AB is the OD600 of LB medium, and AT0 and ATf are the OD600 recorded at inoculating time and at the end of the assay. (1) % Inhibition=100 × [ 1 − [OD600 (Asample Tf− Asample T0)−(AB Tf − AB T0)/OD600 (Anegative control Tf− Anegative control T0)−(AB Tf − AB T0)]]
(§3) Resazurin sodium salt (Sigma-Aldrich, St. Louis, MI, USA) was dissolved in Milli-Q water at 0.2% (w/v) and filter sterilized. The solution was stored at −20 °C in the dark. The assay was performed as previously described with modification. The cultures were withdrawn, and the plates were washed three times with sterile water using the plate washer (BioTek). To remove the remaining water in the wells, the plates were tapped with autoclaved paper towels. An amount of 50 µL of diluted RSZ solution in LB medium was added into each well, followed by incubation at 37 °C for 5–6 h. A microplate reader (BioTek Synergy 2) was used to measure the fluorescence intensity (excitation 530 nm, emission 590 nm). Data collected were determined as a function of fluorescence percentage using Equation (2), where FB is the fluorescence of the diluted RSZ solution in LB medium in the absence of P. aeruginosa cells. (2) % Inhibition=[(Fnegative control −FB )−(Fsample −FB )/(Fnegative control − FB )]×100

[5] = test system: PAO1ΔpelF (Pel deletion mutant); experiment: as above; conditions: ciprofloxacin alone, sub-MIC
Experimental: as §1, §2, §3

PAO1ΔpelF biofilms = test system: PAO1ΔpelF biofilms
Experimental: (§4) Biofilms of wild-type PAO1 and isogenic biofilm matrix component mutants were treated with ianthelliformisamines or ciprofloxacin alone and the combinations. Their biofilms were simultaneously stained with SYTO9 (green) and propidium iodide (red). Cells with intact membranes were stained green, while cells with compromised membranes were stained red.
(§5) For biofilm bacteria imaging, bacteria were cultured, treated with test compounds, and washed, as previously mentioned in the biofilm inhibition assay. The biofilm bacteria were stained using a LIVE/DEAD BacLight bacterial viability kit (Molecular Probes, Inc., Eugene, OR, USA), which consists of SYTO9 (green; staining cells with intact membrane) and propidium iodide (red; staining cells with compromised membrane). Images were captured using a high-content imaging system Operetta CLS (Perkin Elmer, Waltham, MA, USA) with a 60× water-immersion objective.

PDO300Δalg8 biofilms = experiment: Fluorescence microscopy of biofilms (SYTO9/propidium iodide)
Experimental: as §4, §5

PAO1 biofilms = experiment: as above
Experimental: as §4, §5

PDO300 biofilms = experiment: as above
Experimental: as §4, §5

PAO1ΔpslA biofilms = experiment: as above; conditions: alone
Experimental: as §4, §5

With `C[C@@H](O)[C@H]1C(=O)N2C(C(=O)O)=C(S[C@@H]3CN[C@H](C(=O)N(C)C)C3)[C@H](C)[C@H]12` [meropenem, reference compound] the MIC [1] was 0.375 µg/mL.
With polymyxin B the “outer membrane permeabilization (NPN fluorescence)” value [2] was “prominent fluorescence”.
Compound `NC[C@H]1O[C@H](O[C@H]2[C@H](O)[C@@H](O[C@H]3O[C@H](CO)[C@@H](O)[C@H](N)[C@H]3O)[C@H](N)C[C@@H]2N)[C@H](N)C[C@@H]1O` [tobramycin, reference compound] has an MIC [1] of 2 µg/mL.
`O=C(O)c1cn(C2CC2)c2cc(N3CCNCC3)c(F)cc2c1=O` [ciprofloxacin, reference compound] was tested, and the “luminescence response of DNA damage reporter (gyrase inhibition)” value [3] was “steadily enhanced”, the bacterial growth inhibition ([4]; alone at 1/3 MIC) was “moderately inhibited” and the “prevention of biofilm formation” value ([4]; alone at 1/3 MIC) was “completely prevented”. The “reduction of bacterial growth” value ([4]; alone at 1/3 and 1/4 MIC) was greater than 40%, the “suppression of biofilm formation” value ([4]; alone at 1/3 and 1/4 MIC) was ~ 100% and the “effect on survival of suspended cells” value ([4]; sub-lethal doses (1/3, 1/4 MIC) alone) was ~ 50%. For the same compound, the “biofilm response (reduction)” value [5] was ~ 60%, the MIC [1] was 0.25 µg/mL and the cell phenotype (PAO1ΔpelF biofilms) was “long, filamentous phenotypes as well as small, round spheroplasts”. For the same compound, the cell phenotype (PDO300Δalg8 biofilms) was “long, filamentous phenotypes as well as small, round spheroplasts”, the cell phenotype (PAO1 biofilms) was “long, filamentous phenotypes as well as small, round spheroplasts” and the cell phenotype (PDO300 biofilms) was “long, filamentous phenotypes as well as small, round spheroplasts”. For the same compound, the biofilm after treatment (PAO1ΔpslA biofilms) was “unable to form biofilms; also recorded: eradicated”.
